Mutagenic call data for five molecules are collected here from PubChem BioAssay AID1259407 (Chemical Carcinogenesis Research Information System (CCRIS), 2018).

Structures are written as SMILES. Calls of active or inactive are those of the source. No rule for the calls is given here.

This data set relates to CCRIS mutagenicity, Ames/micronucleus/aberration tests. Nature of the data set: CCRIS mutagenicity studies.
Where [1] appears, read: Test System: AMES SALMONELLA TYPHIMURIUM, Strain/Indicator: TA98, Metabolic Activation: NONE, Method: PREINCUBATION
The mark [2] stands for this setting: Test System: AMES SALMONELLA TYPHIMURIUM, Strain/Indicator: TA98, Metabolic Activation: NONE, Method: STANDARD PLATE.
Setting [3] is: Test System: AMES SALMONELLA TYPHIMURIUM, Strain/Indicator: TA100, Metabolic Activation: NONE, Method: STANDARD PLATE.

On to `CC(=O)N(O)c1ccc(-c2ccccc2)cc1`, for which the mutagenic call (Test System: AMES SALMONELLA TYPHIMURIUM, Strain/Indicator: TA98(1,8-DNP6), Metabolic Activation: HUMAN, UROEPITHELIAL CELL, MICROSOMES, Method: PREINCUBATION) was “inactive; negative”; the mutagenic call (Test System: AMES SALMONELLA TYPHIMURIUM, Strain/Indicator: TA98(1,8-DNP6), Metabolic Activation: NONE, Method: PREINCUBATION) was “inactive; negative”; the mutagenic call (Test System: AMES SALMONELLA TYPHIMURIUM, Strain/Indicator: TA98(1,8-DNP6), Metabolic Activation: RAT, LIVER, S-9, AROCLOR, Method: PREINCUBATION) is “active; positive”; the mutagenic call (Test System: AMES SALMONELLA TYPHIMURIUM, Strain/Indicator: TA98, Metabolic Activation: DOG, BLADDER, MICROSOMES, Method: PREINCUBATION) was “active; positive”; the mutagenic call (Test System: AMES SALMONELLA TYPHIMURIUM, Strain/Indicator: TA98, Metabolic Activation: DOG, LIVER, MICROSOMES, Method: PREINCUBATION) is “active; positive”; the mutagenic call (Test System: AMES SALMONELLA TYPHIMURIUM, Strain/Indicator: TA98, Metabolic Activation: HUMAN, UROEPITHELIAL CELL, CYTOSOL, Method: PREINCUBATION) was “active; positive”. The mutagenic call is, setting by setting: (Test System: AMES SALMONELLA TYPHIMURIUM, Strain/Indicator: TA98, Metabolic Activation: HUMAN, UROEPITHELIAL CELL, MICROSOMES, Method: PREINCUBATION) “active; positive”; (Test System: AMES SALMONELLA TYPHIMURIUM, Strain/Indicator: TA98, Metabolic Activation: HUMAN, UROEPITHELIAL CELL, S-9, Method: PREINCUBATION) “active; positive”; under setting [1], “inactive; negative”; (Test System: AMES SALMONELLA TYPHIMURIUM, Strain/Indicator: TA98, Metabolic Activation: RAT, BLADDER, MICROSOMES, Method: PREINCUBATION) “inactive; negative”; (Test System: AMES SALMONELLA TYPHIMURIUM, Strain/Indicator: TA98, Metabolic Activation: RAT, LIVER, CYTOSOL, Method: PREINCUBATION) “active; positive”; (Test System: AMES SALMONELLA TYPHIMURIUM, Strain/Indicator: TA98, Metabolic Activation: RAT, LIVER, MICROSOMES, Method: PREINCUBATION) “active; positive”. Moreover, the mutagenic call runs as follows: (Test System: AMES SALMONELLA TYPHIMURIUM, Strain/Indicator: TA98, Metabolic Activation: RAT, LIVER, S-9, AROCLOR, Method: PREINCUBATION) “active; positive”; (Test System: AMES SALMONELLA TYPHIMURIUM, Strain/Indicator: YG1024, Metabolic Activation: HUMAN, UROEPITHELIAL CELL, MICROSOMES, Method: PREINCUBATION) “active; positive”; (Test System: UDS HUMAN FIBROBLASTS, Strain/Indicator: THY INCORP (NON-S-PHASE), Metabolic Activation: NONE, Method: AUTORADIOGRAPHY) “active; positive”.

`CC(=O)OCc1ccc(N=Nc2ccc(N(C)C)cc2)cc1`: the mutagenic call runs as follows: (Test System: AMES SALMONELLA TYPHIMURIUM, Strain/Indicator: TA98, Metabolic Activation: RAT, LIVER, S-9, POLYCHLORINATED BIPHENYLS, Method: PREINCUBATION) “active; positive”; (Test System: AMES SALMONELLA TYPHIMURIUM, Strain/Indicator: TA100, Metabolic Activation: RAT, LIVER, S-9, POLYCHLORINATED BIPHENYLS, Method: PREINCUBATION) “active; positive”.

Regarding `CCCCCCC(O)C/C=C\CCCCCCCC(=O)OCC(COC(=O)CCCCCCC/C=C\CC(O)CCCCCC)OC(=O)CCCCCCC/C=C\CC(O)CCCCCC` (stereo unspecified), the mutagenic call was “inactive; negative” (Test System: AMES SALMONELLA TYPHIMURIUM, Strain/Indicator: TA97, Metabolic Activation: HAMSTER, LIVER, S-9, AROCLOR 1254 (10 OR 30%), Method: PREINCUBATION); “inactive; negative” (Test System: AMES SALMONELLA TYPHIMURIUM, Strain/Indicator: TA97, Metabolic Activation: NONE, Method: PREINCUBATION); “inactive; negative” (Test System: AMES SALMONELLA TYPHIMURIUM, Strain/Indicator: TA97, Metabolic Activation: RAT, LIVER, S-9, AROCLOR 1254 (10 OR 30%), Method: PREINCUBATION); “inactive; negative” (Test System: AMES SALMONELLA TYPHIMURIUM, Strain/Indicator: TA98, Metabolic Activation: HAMSTER, LIVER, S-9, AROCLOR 1254 (10 OR 30%), Method: PREINCUBATION); “inactive; negative” under setting [1]; “inactive; negative” (Test System: AMES SALMONELLA TYPHIMURIUM, Strain/Indicator: TA98, Metabolic Activation: RAT, LIVER, S-9, AROCLOR 1254 (10 OR 30%), Method: PREINCUBATION). Also, the mutagenic call reads like this: (Test System: AMES SALMONELLA TYPHIMURIUM, Strain/Indicator: TA100, Metabolic Activation: HAMSTER, LIVER, S-9, AROCLOR 1254 (10 OR 30%), Method: PREINCUBATION) “inactive; negative”; (Test System: AMES SALMONELLA TYPHIMURIUM, Strain/Indicator: TA100, Metabolic Activation: NONE, Method: PREINCUBATION) “inactive; negative”; (Test System: AMES SALMONELLA TYPHIMURIUM, Strain/Indicator: TA100, Metabolic Activation: RAT, LIVER, S-9, AROCLOR 1254 (10 OR 30%), Method: PREINCUBATION) “inactive; negative”; (Test System: AMES SALMONELLA TYPHIMURIUM, Strain/Indicator: TA1535, Metabolic Activation: HAMSTER, LIVER, S-9, AROCLOR 1254 (10 OR 30%), Method: PREINCUBATION) “inactive; negative”; (Test System: AMES SALMONELLA TYPHIMURIUM, Strain/Indicator: TA1535, Metabolic Activation: NONE, Method: PREINCUBATION) “inactive; negative”; (Test System: AMES SALMONELLA TYPHIMURIUM, Strain/Indicator: TA1535, Metabolic Activation: RAT, LIVER, S-9, AROCLOR 1254 (10 OR 30%), Method: PREINCUBATION) “inactive; negative”.

`COc1ccc(C=CC(=O)c2ccccc2)cc1`: the mutagenic call was “inactive; negative” under setting [2]; “inactive; negative” (Test System: AMES SALMONELLA TYPHIMURIUM, Strain/Indicator: TA98, Metabolic Activation: RAT, LIVER, S-9, AROCLOR 1254, Method: STANDARD PLATE); “inactive; negative” under setting [3]; “inactive; negative” (Test System: AMES SALMONELLA TYPHIMURIUM, Strain/Indicator: TA100, Metabolic Activation: RAT, LIVER, S-9, AROCLOR 1254, Method: STANDARD PLATE).

As to `O=[N+]([O-])c1cccc2nscc12`, the mutagenic call is “active; positive” under setting [2]; “active; positive” (Test System: AMES SALMONELLA TYPHIMURIUM, Strain/Indicator: TA98, Metabolic Activation: S-9, Method: STANDARD PLATE); “active; positive” under setting [3]; “active; positive” (Test System: AMES SALMONELLA TYPHIMURIUM, Strain/Indicator: TA100, Metabolic Activation: S-9, Method: STANDARD PLATE (TEST MATERIAL SOLVENT:DMSO)); “active; positive” (Test System: AMES SALMONELLA TYPHIMURIUM, Strain/Indicator: TA1535, Metabolic Activation: NONE, Method: STANDARD PLATE); “inactive; negative” (Test System: AMES SALMONELLA TYPHIMURIUM, Strain/Indicator: TA1535, Metabolic Activation: S-9, Method: STANDARD PLATE). Further, the mutagenic call runs as follows: (Test System: AMES SALMONELLA TYPHIMURIUM, Strain/Indicator: TA1537, Metabolic Activation: NONE, Method: STANDARD PLATE) “active; positive”; (Test System: AMES SALMONELLA TYPHIMURIUM, Strain/Indicator: TA1537, Metabolic Activation: S-9, Method: STANDARD PLATE) “inactive; negative”.
